Biological target: T1, Human TRPV3 expressing CHO cells (Homo sapiens, UniProt Q8NET8)
T1 construct: expressed in transfected cells; host or cells: CHO cells, kept under G-418 selection
T1 sequence (Q8NET8 1-790): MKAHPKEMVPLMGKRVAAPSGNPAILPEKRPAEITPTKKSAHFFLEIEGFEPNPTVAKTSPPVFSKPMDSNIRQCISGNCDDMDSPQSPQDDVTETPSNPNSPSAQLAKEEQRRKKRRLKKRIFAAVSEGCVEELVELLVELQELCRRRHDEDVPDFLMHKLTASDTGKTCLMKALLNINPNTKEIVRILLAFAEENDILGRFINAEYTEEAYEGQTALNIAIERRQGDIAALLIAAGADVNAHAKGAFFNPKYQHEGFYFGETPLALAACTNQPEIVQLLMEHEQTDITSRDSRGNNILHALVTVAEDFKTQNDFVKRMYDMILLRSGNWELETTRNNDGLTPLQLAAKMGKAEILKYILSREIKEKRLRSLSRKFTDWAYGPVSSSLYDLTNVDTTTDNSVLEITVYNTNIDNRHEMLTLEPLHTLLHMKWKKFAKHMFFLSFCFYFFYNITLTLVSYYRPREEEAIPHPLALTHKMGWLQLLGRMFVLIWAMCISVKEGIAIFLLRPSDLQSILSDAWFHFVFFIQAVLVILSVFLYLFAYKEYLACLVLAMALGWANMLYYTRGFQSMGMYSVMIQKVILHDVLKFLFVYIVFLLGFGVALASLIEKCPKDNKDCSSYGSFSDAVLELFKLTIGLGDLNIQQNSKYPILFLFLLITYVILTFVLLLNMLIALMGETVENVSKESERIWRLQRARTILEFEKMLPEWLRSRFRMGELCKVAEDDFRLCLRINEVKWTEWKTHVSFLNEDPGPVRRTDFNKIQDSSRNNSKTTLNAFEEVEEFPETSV
Experiment: 45Calcium uptake assay: inhibition of 2-APB induced cellular uptake of radioactive calcium
Type: cell-based
Settings: 2-APB 500 μM; for IC50: class symbols; for inhibition at 1 µM / Percentage inhibition at 1.0 μM: compound at 1.0 μM; for inhibition at 1 µM: read-out: Percentage inhibition at 1.0 μM; for inhibition at 10 µM / Percentage inhibition at 10.0 μM: compound at 10.0 μM; for inhibition at 10 µM: read-out: Percentage inhibition at 10.0 μM
Excerpt: Certain illustrative compounds within the scope of the present invention are screened for TRPV3 activity according to a modified procedure described in (a) Tóth, A. et al. Life Sciences 2003, 73, 487-498. (b) McNamara C, R. et al. Proc. Natl. Acad. Sci. U.S.A., 2007, 104, 13525-13530. The screening of the compounds may be carried out by other methods and procedures known to persons skilled in the art.
Screening for TRPV3 Antagonist Using the ^45Calcium Uptake Assay
The inhibition of TRPV3 receptor activation was followed as inhibition of 2-aminoethxydiphenylborate (2-APB) induced cellular uptake of radioactive calcium. Test compounds were dissolved in dimethyl sulfoxide (DMSO) to prepare 20 mM stock solution and then diluted using plain medium with DMEM/F-12 containing 1.8 mM CaCl2 to get desired concentration. Final concentration of DMSO in the reaction was 0.5% (v/v). Human TRPV3 expressing CHO cells were grown in DMEM/F-12 medium with 10% FBS, 1% penicillin-streptomycin solution, 400 μg/mL of G-418. Cells were seeded 24 h prior to the assay in 96 well plates so as to get ˜50,000 cells per well on the day of experiment. Cells were treated with test compounds for 10 minutes followed by addition of 2-APB at a final concentration of 500 μM and 5 μCi/mL ^45Ca^+2 for 4 minutes. Cells were washed and lysed using buffer containing 1% Triton X-100, 0.1% deoxycholate and 0.1% SDS. Radioactivity in the lysate was measured in Packardt Top count after addition of liquid scintillant. Concentration response curves were plotted as a % of maximal response obtained in the absence of test antagonist. IC50 value was calculated from concentration response curve by nonlinear regression analysis using GraphPad PRISM software.
Percentage inhibition at concentrations of 1.0 μM and 10.0 μM are given in the table along with IC50 (nM) details for selected examples.

IC50 | inhibition at 1 µM | inhibition at 10 µM | Molecule | Percentage inhibition at 1.0 μM | Percentage inhibition at 10.0 μM
100 to 250 nM | 93.7% | 97.7% | O=C(Nc1nc(C(F)(F)F)cs1)c1c(/C=C/c2cccc(OC(F)F)c2OCC2CCC2)nc2sccn12 [Example 36, 6-{(E)-2-[2-(Cyclobutylmethoxy)-3-(difluoromethoxy)phenyl]vinyl}-N-[4-(trifluoro-methyl)-1,3-thiazol-2-yl]imidazo[2,1-b][1,3]thiazole-5-carboxamide] | – | –
– | 60.9% | 97.7% | CC(C)(C)COc1c(/C=C/c2nc3sccn3c2C(=O)NCC(F)(F)F)cccc1OC(F)F [Example 31, 6-{(E)-2-[3-(Difluoromethoxy)-2-(2,2-dimethylpropoxy)phenyl]vinyl}-N-(2,2,2-trifluoroethyl)imidazo[2,1-b][1,3]thiazole-5-carboxamide] | – | –
100 to 250 nM | 78.1% | 95% | CCCCCOc1c(/C=C/c2nc3sccn3c2C(=O)Nc2nc(C3CC3)cs2)cccc1OC(F)F [Example 34] | – | –
– | 20.7% | 26.6% | COc1cccc(/C=C/c2nc3sccn3c2C(=O)Nc2nc(-c3ccc(C#N)cc3)cs2)c1OCC(C)(C)C [Example 15, N-[4-(4-Cyanophenyl)-1,3-thiazol-2-yl]-6-{(E)-2-[2-(2,2-dimethylpropoxy)-3-methoxyphenyl]vinyl}imidazo[2,1-b][1,3]thiazole-5-carboxamide] | – | –
250 to 1000 nM | 73.2% | 97.6% | COc1cccc(/C=C/c2nc3sccn3c2C(=O)Nc2nc(C(F)(F)F)cs2)c1OCC1CC1 [Example 2, 6-[(E)-2-(2-Cyclopropylmethoxy-3-methoxyphenyl)vinyl]-N-[4-(trifluoromethyl)-1,3-thiazol-2-yl]imidazo[2,1-b][1,3]thiazole-5-carboxamide] | – | –
< 100 nM | 75.1% | 84.8% | CCN(C(=O)c1c(/C=C/c2cccc(OC)c2OCC(C)(C)C)nc2sccn12)c1nc(C(F)(F)F)cs1 [Example 11, N-Ethyl-6-{(E)-2-[2-(2,2-dimethylpropoxy)-3-methoxyphenyl]vinyl}-N-[4-(trifluoro-methyl)-1,3-thiazol-2-yl]imidazo[2,1-b][1,3]thiazole-5-carboxamide] | – | –
– | 76.1% | 58.7% | CC(C)(C)COc1c(/C=C/c2nc3ccccn3c2C(=O)Nc2nc(C3CC3)cs2)cccc1OC(F)F [Example 39, 2-{(E)-2-[2-(2,2-Dimethylpropoxy)-3-(difluoromethoxy)phenyl]vinyl}-N-(4-cyclo-propyl-1,3-thiazol-2-yl)imidazo[1,2-a]pyridine-3-carboxamide] | – | –
< 100 nM | 96.9% | 98.2% | CC(C)(C)COc1c(/C=C/c2nc3sccn3c2C(=O)Nc2nc(C(F)(F)F)cs2)cccc1OC(F)F [Example 18, 6-{(E)-2-[3-Difluoromethoxy-2-(2,2-dimethylpropoxy)phenyl]vinyl}-N-[4-(trifluoro-methyl)-1,3-thiazol-2-yl]imidazo[2,1-b][1,3]thiazole-5-carboxamide] | – | –
– | – | – | COc1cccc(/C=C/c2nc3sccn3c2C(=O)N2CCn3c(nnc3C(F)(F)F)C2)c1OCC(C)(C)C [Example 14] | 10.33% | 15.45%
– | 36.2% | 91.7% | COc1cccc(/C=C/c2nc3sccn3c2C(=O)N2CCN(c3ccc(C(F)(F)F)cn3)CC2)c1OCC1CC1 [Example 4, 6-[(E)-2-(2-Cyclopropylmethoxy-3-methoxyphenyl)vinyl]imidazo[2,1-b][1,3]thiazol-5-yl-4-(5-trifluoromethyl-2-pyridyl)piperazinomethanone] | – | –
250 to 1000 nM | 69.3% | 80.6% | COc1cccc(/C=C/c2nc3sccn3c2C(=O)Nc2nc(C)cs2)c1OCC(C)(C)C [Example 10, 6-{(E)-2-[2-(2,2-Dimethylpropoxy)-3-methoxyphenyl]vinyl}-N-(4-methyl-1,3-thiazol-2-yl)imidazo[2,1-b][1,3]thiazole-5-carboxamide] | – | –
– | 21.1% | 94% | CC(C)(C)COc1c(/C=C/c2nc3sccn3c2C(=O)NCCC#N)cccc1OC(F)F [Example 30, N-(2-Cyanoethyl)-6-{(E)-2-[3-(difluoromethoxy)-2-(2,2-dimethylpropoxy)phenyl]vinyl}imidazo[2,1-b][1,3]thiazole-5-carboxamide] | – | –
– | 9.45% | 15.6% | CC(C)(C)COc1c(/C=C/c2nc3sccn3c2C(=O)Nc2nc3c(s2)CCC3)cccc1OC(F)F [Example 28, 6-{(E)-2-[2-(2,2-Dimethylpropoxy)-3-(difluoromethoxy)phenyl]vinyl}-N-(5,6-dihydro-4H-cyclopenta[d][1,3]thiazol-2-yl)imidazo[2,1-b][1,3]thiazole-5-carboxamide] | – | –
< 100 nM | 94.9% | 97.9% | COc1cccc(/C=C/c2nc3ccccn3c2C(=O)Nc2nc(C(F)(F)F)cs2)c1OCC(C)(C)C [Example 37] | – | –
< 100 nM | 95.5% | 99.5% | COc1cccc(/C=C/c2nc3sccn3c2C(=O)Nc2nc(C(F)(F)F)cs2)c1OCC(C)(C)C [Example 7, 6-{(E)-2-[2-(2,2-Dimethylpropoxy)-3-methoxyphenyl]vinyl}-N-[4-(trifluoromethyl)-1,3-thiazol-2-yl]imidazo[2,1-b][1,3]thiazole-5-carboxamide] | – | –
– | 51.8% | 93.1% | CCCCCOc1c(/C=C/c2nc3sccn3c2C(=O)Nc2nc(C(F)(F)F)cs2)cccc1OC(F)F [Example 33] | – | –
– | 70.1% | 77.5% | CC(C)(C)COc1c(/C=C/c2nc3sccn3c2C(=O)Nc2ccc(C#N)cn2)cccc1OC(F)F [Example 26, N-(5-Cyanopyridin-2-yl)-6-{(E)-2-[3-(difluoromethoxy)-2-(2,2-dimethylpropoxy)phenyl]vinyl}imidazo[2,1-b][1,3]thiazole-5-carboxamide] | – | –
– | 0% | 18.2% | CC(C)(C)COc1c(/C=C/c2nc3sccn3c2C(=O)NCc2cccc(C(F)(F)F)c2)cccc1OC(F)F [Example 25, 6-{(E)-2-[3-(Difluoromethoxy)-2-(2,2-dimethylpropoxy)phenyl]vinyl}-N-(3-trifluoromethylbenzyl)imidazo[2,1-b][1,3]thiazole-5-carboxamide] | – | –
– | – | – | 2-{(E)-2-[3-(Difluoromethoxy)-2-(2,2-dimethylpropoxy)phenyl]vinyl}-N-[4-(trifluoro-methyl)-1,3-thiazol-2-yl]imidazo[1,2-c]pyridine-3-carboxamide [Example 38] | 87.67% | 97.11%

Molecule | IC50 | inhibition at 1 µM | inhibition at 10 µM | Percentage inhibition at 1.0 μM | Percentage inhibition at 10.0 μM
CC(C)CCOc1c(/C=C/c2nc3sccn3c2C(=O)Nc2nc(C(F)(F)F)cs2)cccc1OC(F)F [Example 32, 6-{(E)-2-[3-(Difluoromethoxy)-2-[3-methylbutoxy)phenyl]vinyl}-N-[4-(trifluoromethyl)-1,3-thiazol-2-yl]imidazo[2,1-b][1,3]thiazole-5-carboxamide] | – | 63.7% | 96.6% | – | –
COc1cccc(/C=C/c2nc3sccn3c2C(=O)Nc2nc(C(F)(F)F)cs2)c1OCC(C)C [Example 6, 6-{(E)-2-[2-(Isobutoxy)-3-methoxyphenyl]vinyl}-N-[4-(trifluoromethyl)-1,3-thiazol-2-yl]imidazo[2,1-b][1,3]thiazole-5-carboxamide] | 250 to 1000 nM | 93% | 98.8% | – | –
